# Entries after “also recorded” stand apart in the source; their conditions may differ. Where two headings read alike, the source gives them in different places. Where a SMILES comes first, the peptide text is derived from it. The star is where a group is joined. Cbz = O=C(OCc1ccccc1)*; CH2F = FC*
# Columns and labels:
# PC12 cells = assay: Zinc-induced cell death of PC12 cells; format: cell-based; design: cell lysis (indicative of necrosis) of PC12 cells: dose or concentration left out as unconfirmed; conditions: for effect on cell viability: high (mM) concentrations
# [1] = tested on: IIC9 cells (embryonic fibroblasts); assay: IIC9 cell death by trypan blue uptake; format: cell-based; conditions: for effect on cell viability: high (mM) concentrations; for cell death: 6 h (FIG. 1A); for attenuation of zinc-induced cell death: Z-VAD preincubation
# Ras = Ras activation in IIC9 cells, Raf-RBD pull-down assay; format: cell-based; conditions: for Ras isoform activated: isoform-specific antibody
# Protocol: (§1) Assays: ERK1/2 activation was determined by harvesting cells directly in boiling SDS-PAGE sample buffer and probing corresponding Western Blots with anti-pERK antibody (Cell Signaling). Blots were stripped and reprobed for total ERK (Cell Signaling). Ras activation was determined using the Raf-RBD assay (21,24). Identification of the specific Ras isoform activated was determined by probing the western blot with isoform-specific antibody (Upstate Biotechnology). Transfection of IIC9 cells was carried out using Novafector. Transfection efficiency of these cells is approximately 90%. The constructs for expression of dn-Ras and Bcl-Xl were kindly provided by Dr. J. Corbett and Dr. Chinnaduri (SLU).
# Because Ras is a common upstream activator of ERK1/2 (36), we reasoned that zinc may induce the phosphorylation of ERK1/2 via Ras. This was examined by incubating IIC9 cells with 100 uM zinc and assessing Ras activation by RBD pull-down of GTP-Ras followed by Western blot analysis with a pan-Ras antibody. […] The critical role of Ras in mediating the effects of zinc was confirmed by examining the effect of over-expression of dnRas. […] Consistent with Ras as the upstream activator of the cytotoxic effect of zinc on IIC9, expression of dn H-Ras also attenuates zinc-mediated cell death (FIG. 5B).
# ERK1/2 = ERK1/2 activation in IIC9 cells, Western blot with anti-pERK antibody; format: cell-based; design: time until ERK activation is detected after zinc addition / time ERK activation remains elevated: dose or concentration left out as unconfirmed; conditions: for effect of inhibitor on ERK activation by zinc: IIC9 cells preincubated with inhibitor
# Protocol: as §1
# RAW (macrophage) cells = assay: Zinc-induced death of RAW (macrophage) cells; format: cell-based
# Protocol: Exemplary cell types were treated in vitro with varying amounts of zinc (zinc chloride or zinc sulfate), in the presence or absence of the zinc ionophore pyrithione.
# [2] = tested on: N18TG2 (neuroblastoma) cells; assay: Zinc-induced death of N18TG2 (neuroblastoma) cells; format: cell-based; conditions: 24 h incubation
# Protocol: Exemplary cell types were treated in vitro with varying amounts of zinc (zinc chloride or zinc sulfate), in the presence or absence of the zinc ionophore pyrithione. […] Cell death involves both apoptosis and necrosis as determined by morphological observation.
# ERK = ERK activation (pERK) in PC12 cells; format: cell-based
# [3] = tested on: PC3 cells (prostate cancer cell line); assay: Killing of PC3 cells by zinc and zinc-containing liposomes; format: cell-based; conditions: PC3 cells in culture (FIG. 6)
# Protocol: These cells express high levels of the transferrin receptor and can be targeted by covalently attaching transferrin to the formed liposomes.
# We next tested the ability of these liposomes to kill PC3 cells in culture (FIG. 6).
# Non-prophetically, zinc containing liposomes were prepared by injecting ethanolic solutions of lipids into 10 mM Hepes buffer pH 6 containing 2.5 M ZnCl2. To make the ethanolic lipid solution, lipids initially dissolved in chloroform were dried by passing gaseous nitrogen over the solution. The dried lipids were dissolved in ethanol at a concentration of […] of phospholipids per mL of alcohol. The alcoholic lipid solution containing dioleoyl phosphatidyly choline, 1,2 dioleoyl phosphatidyly ethanolamine, 1,2 dioleolyl phosphatidyletanolamine-N-4-(p-maleimido-phenyl)butyramide) and cholesterol in a ratio of 7:2:0.05:1 was slowly (0.5 ml/min) injected through a Hamilton syringe into 3 mL of a magnetically stirred Hepes buffer, containing 2.5 mM ZnCl2 The final concentration of ethanol was between 2.5-7.5%. During injection of the lipids, the solution was constantly stirred by a standard magnetic stirrer. To ensure that the temperature of the liposome solution was well above the phase transition of the lipids, the temperature was kept at […]. […]
# [4] = tested on: IIC9 cells (embryonic fibroblasts); assay: IIC9 cell morphology, microscopic examination; format: cell-based
# Protocol: FIG. 1 depicts zinc-induced cell death in a time and dose dependent manner. (A) IIC9 cells (embryonic fibroblasts) were serum starved for 2 days and treated with the indicated concentrations of zinc for the indicated time periods. Cell death was monitored by trypan blue exclusion as described in the Materials and Methods. (B-D) Zinc-induced cell death is accompanied by morphological changes associated with apoptosis and necrosis. Shown are cells that were incubated with either 50 μM (C) or 200 μM (D) zinc for 6 hours. Control cells (B) were untreated. Cells were examined microscopically for changes in cell shape and size. […] Cell debris, indicative of cell lysis, was evident.
# Cells and Incubation Conditions: IIC9 cells were grown in DMEM containing 10% FCS, P/S. Cells were plated in 12-well plates and grown to approximately 70% confluency. At that time, cells were serum arrested by changing the medium to DMEM (low glucose) without FCS. After 48 hours, cells were treated with zinc as described in the text. Cell death was quantified by trypan blue uptake. Cells were incubated with trypan blue (0.04%) for 5 min. Cells were examined microscopically and the number of blue cells and total cells were counted. Four fields were examined for each condition, with a minimum of 100 cells/field. To examine the effects of selective inhibitors, cells were preincubated with the indicated compound for 30 min. prior to zinc treatment.
# [5] = tested on: CD4+ CD8+ alpha beta TCR10CD3(10) thymocytes; conditions: 80-200 μM zinc; cited from earlier work
# [6] = PC12 cells, same range of concentrations as zinc
# [7] = IIC9 cells, same range of concentrations as zinc
compound,measurement,setting,value
O=S(=O)([O-])[O-].[Cu+2] [CuSO4],cell death (apoptosis or necrosis) by metal salts,PC12 cells; [6],No cell death
same,cell death by metal salts,[1]; [7],does not result in the cell death
thrombin,activation of Ras,"Ras; IIC9 cells stimulated with thrombin, previous finding of the inventors",3- to 5 fold
same,Ras isoform activated,Ras; IIC9 cells,"rapid activation of N-Ras, followed by a sustained activation of K-Ras"
CC(C)(C)n1nc(-c2ccc(Cl)cc2)c2c(N)ncnc21 [PP2],effect of inhibitor on ERK activation by zinc,ERK1/2,does not inhibit zinc activation of ERK1/2
[Ca] [Ca],effect on cell viability,PC12 cells; PC12 cells,no effect on cell viability
same,effect on cell viability,[1]; IIC9 cells,no effect on cell viability
C[S+]([O-])c1ccc(-c2nc(-c3ccncc3)c(-c3ccc(F)cc3)[nH]2)cc1 (stereo not shown) [SB203580],effect of preincubation with inhibitor on zinc-mediated cell death,"[1]; 30 min preincubation, then 50 μM zinc (FIG. 2A)",does not affect zinc-mediated cell death
[Mg] [Mg],effect on cell viability,PC12 cells; PC12 cells,no effect on cell viability
same,effect on cell viability,[1]; IIC9 cells,no effect on cell viability
COc1cc2ncnc(Nc3cccc(Br)c3)c2cc1OC [PD153035],effect of inhibitor on ERK activation by zinc,ERK1/2,does not alter ERK activation
O=S(=O)([O-])[O-].[Zn+2] [ZnSO4],cell death (apoptosis or necrosis) by metal salts,PC12 cells; [6],equally effective as ZnCl2
same,cell death by metal salts,[1]; [7],equally effective as ZnCl2
[Cl-].[Cl-].[Zn+2] [zinc],% cell death,"RAW (macrophage) cells; 25 μM zinc, 0.0 hours of incubation",0.0%
same,% cell death,"RAW (macrophage) cells; 25 μM zinc, 1.0 hours of incubation",0.0%
same,% cell death,"RAW (macrophage) cells; 25 μM zinc, 3.0 hours of incubation",0.0%
same,% cell death,"RAW (macrophage) cells; 25 μM zinc, 5.0 hours of incubation",0.0%
same,% cell death,"RAW (macrophage) cells; 50 μM zinc, 5.0 hours of incubation",0.0%
same,% cell death,"RAW (macrophage) cells; 50 μM zinc, 18.0 hours of incubation",20.0%
same,% cell death,"RAW (macrophage) cells; 100 μM zinc, 18.0 hours of incubation",100.0%
same,% death,[2]; 25 μM zinc,19%
same,% death,[2]; 50 μM zinc,75%
same,% death,[2]; 75 μM zinc,84%
same,% death,[2]; 150 μM zinc,90%
same,cell lysis (indicative of necrosis) of PC12 cells,PC12 cells; higher zinc concentrations or longer time periods,significant cell lysis
same,cell death of PC12 cells,"PC12 cells; undifferentiated or differentiated PC12 cells, in vitro",time and dose-dependent cell death
same,time until pERK could be detected,"ERK; PC12 cells, after zinc treatment",within five minutes
same,time pERK remained at that level,"ERK; PC12 cells, longest time period examined",at least five hours
same,ERK activation,ERK; zinc treatment of PC12 cells,induced ERK activation
same,death of the population,"[1]; 50 μM zinc, 6-h incubation, experiment of FIG. 2A",approximately 25%
same,cell death,[1]; 50 μM zinc,~15%
same,cell death,[1]; 100 μM zinc,~25%
same,cell death,[1]; 200 μM zinc,approximately 45%
same,extracellular zinc concentration necessary to induce the death pathway,"[1]; IIC9 cells, in the absence of pyrithione",≥ 50 µM
same,cell death of IIC9 cells,[1]; addition of zinc,time- and concentration-dependent
same,cell death during the first few hours,"[1]; zinc concentrations as high as 200 μM, first few hours",Little or no death
same,induction of pERK,"ERK1/2; IIC9 cells, western blotting with pERK antibody (FIG. 2E)",does induce pERK
same,time until ERK activation is detected after zinc addition,"ERK1/2; IIC9 cells, zinc",≤ 5 min
same,time ERK activation remains elevated,"ERK1/2; IIC9 cells, zinc, longest time period examined",at least 6 h
same,activation of Ras,"Ras; IIC9 cells, 100 uM zinc, pan-Ras antibody (FIG. 5A)",~5 fold
same,Ras isoform activated,Ras; IIC9 cells,selective activation of H-Ras
same,cell death of PC3 cells,[3],underwent cell death
same,cell morphology,"[4]; 50 μM zinc, 6 hours (FIG. 1C)",rounded and displayed differing degrees of cell shrinkage
same,cell population displaying a rounded morphology,"[4]; 50 μM zinc, first few hours of incubation",approximately 50%
same,cell morphology,"[4]; 200 μM zinc, 6 hours (FIG. 1D)",more varied morphology
same,cell morphology,"[4]; 100 or 200 uM zinc, first few hours",all cells were rounded and underwent differing degrees of cell shrinkage
same,thymocytes in which apoptosis was induced,[5],40%
[Cl][Ni][Cl] [NiCl2],cell death (apoptosis or necrosis) by metal salts,PC12 cells; [6],No cell death
same,cell death by metal salts,[1]; [7],does not result in the cell death
[Cl-].[Cl-].[Co+2] [CoCl2],cell death (apoptosis or necrosis) by metal salts,PC12 cells,No cell death
same,cell death by metal salts,[1],does not result in the cell death
[Mn] [Mn],effect on cell viability,PC12 cells; PC12 cells,no effect on cell viability
same,effect on cell viability,[1]; IIC9 cells,no effect on cell viability
N#CC(=C(/N)Sc1ccccc1N)/C(C#N)=C(\N)Sc1ccccc1N [U0126],effect of preincubation on zinc-induced cell death,PC12 cells,greatly attenuated
same,effect of preincubation on zinc-induced ERK activation,ERK; PC12 cells preincubated with inhibitor,attenuated that activation
same,cell death in cells pretreated with inhibitor,[1],Little or no death
same,effect of preincubation with inhibitor on zinc-mediated cell death,[1],inhibits zinc-induced cell death
same,effect of inhibitor on ERK activation by zinc,ERK1/2,significantly reduces ERK activation; also recorded: significantly reduced
same,effect on morphological changes induced by zinc,"[4]; cells preincubated with inhibitor, 50 μM zinc (FIG. 2B-D)",limited; also recorded: prevented the morphological changes
[Cd] [Cd],cell death (apoptosis or necrosis) by metal salts,PC12 cells; [6],did result in cell death
CC(NC(=O)C(NC(=O)OCc1ccccc1)C(C)C)C(=O)NC(CC(=O)O)C(=O)CF (stereo not drawn) [Z-VAD] (Cbz-Val-Ala-Asp-CH2F; configuration not given here),cell death in cells pretreated with Z-VAD,"[1]; 50 μM zinc, first 6 hours of zinc treatment",little cell death
same,attenuation of zinc-induced cell death,"[1]; 50 μM zinc, 21 h",50%
same,attenuation of zinc-induced cell death,"[1]; 100 μM zinc, 21 h",limited attenuation
same,attenuation of zinc-induced cell death,"[1]; 100 μM zinc, first 6 hours",approximately 50%
same,effect of Z-VAD on zinc-mediated cell death,"[1]; early hours (3-6), indicated zinc concentrations (FIG. 3A)",greatly attenuated death
[Li] [Li],effect on cell viability,PC12 cells; PC12 cells,no effect on cell viability
same,effect on cell viability,[1]; IIC9 cells,no effect on cell viability
